Experimental data as given in patent US20050238619A1, “Method for the delivery of sustained release agents” (priority 2004, published 2005).

Tests used:
[1] = Fluorescein retention in RF ablated bovine liver, washed in PBS and photographed under UV light; format: in vitro ADME; details: ablated bovine liver bivalved, agitated in 1 L PBS exchanged daily; photographed under UV light; FIG. 1
Excerpt: Bovine liver was ablated, injected multiple times with fluorescein. […] The PBS was exchanged daily for two weeks. At weekly intervals, the ablated tissue was photographed under ultraviolet (UV) light. […] This approach can be used to help train and assess people to use the technique.

[2] = Fluorescein retention by RF ablated bovine liver versus number of injections (fluorimeter); format: in vitro ADME; details: total volume 0.5 mL, tissue washed over 10 minutes, FIG. 2
Method: Ablated bovine liver, prepared as in Example 1, was injected 3, 10, or 30 times with fluorescein (total volume of 0.5 mL). The tissue was extensively washed over 10 minutes; and the retained fluorescein was calculated as a percentage of the total injected fluorescein. To quantify the retained fluorescein, the washed tissue was homogenized, centrifuged and the supernatant assessed for fluorescein using a fluorimeter with excitation and emission filters of 485 nm and 525 nm, respectively.

[3] = general statement used as the basis of the calculation; cited from earlier work
[4] = Fluorescein retention in RF ablated subcutaneous Ras-6 tumors in vivo; set-up: species or system Balb/c female mice; details: Ras-6 flank tumors, RFA, 50 μl fluorescein in 1 to 3 injections; FIG. 4
Method: Balb/c female mice were injected with 10^6 Ras-6 tumor cells in the flank. The Ras-6 tumor was derived by transfection of a p53-null BALB/c murine embryo fibroblast line with a mutant ras gene. Once the tumors reached 0.5-1 cm in size, the animals were placed under general anesthesia; and the tumors was ablated using a 0.7 cm multi-tined probe. RFA was accomplished by starting with 1-3 watts of power and increasing the power every 30 seconds. A special resistor circuit was placed in the circuit to avoid a low resistance default interrupt error built into the RFA generator. Following RFA, the tumors were injected with a total volume of 50 μl of fluorescein using 1 to 3 injections. At various intervals, the animals were sacrificed and the retained fluorescein assessed. FIG. 4 depicts the residual fluorescein after 1, 3, and 8 days. Consistent with the ex vivo studies, the amount of fluorescein decreases over this time interval; however, substantial fluorescein remains in the ablated tumor for ar least 8 days in vivo.

[5] = Fluorescein retention in RF ablated hepatic tumors in clinical studies, estimated from serial urine samples; format: in vivo, patients; details: patient 1, after 12 days; 1 ml of 10% fluorescein (100 mg), 20 injections; estimated 2 L urine/day; FIG. 6
Method: Six patients with unresectable hepatic metastases or hapatocellular carcinoma were enrolled in the Internal Review Board approved protocol following the process of informed consent. Eligibility required that the patient receive RFA for therapeutic intent. RFA was performed using a RadioTherapeutics® device according to their specifications. Subsequently, 1 ml of 10% fluorescein was injected into the ablated tissue (20 different injections).
Because 98% of fluorescein is excreted in the urine, the amount of released and retained fluorescein could be estimated from serial urine sample. Serially, first morning void urine samples were collected and assessed for fluorescein. The retained fluorescein was calculated by subtracting the estimated excreted fluorescein (measured fluorescein (mg/mL)×estimated 2 L urine/day volume) from the total injected fluorescein (100 mg).

[6] = Release of fluorescein from RF ablated bovine liver tissue; format: in vitro ADME; details: FIG. 3
Excerpt: To determine the rate of fluorescein release, bovine liver was ablated with RF and injected with fluorescein. […] However, after one week of continued washing, the ablated tissue still contained greater than 50% of the original fluorescein.

time fluorescein was detected within the ablated tissue [1]: at least two weeks
retained fluorescein as a percentage of the total injected fluorescein ([2]; 3 injections): 41%
retained fluorescein as a percentage of the total injected fluorescein ([2]; 10 injections): 49%
retained fluorescein as a percentage of the total injected fluorescein ([2]; 30 injections): about 65%
time substantial fluorescein remains in the ablated tumor in vivo [4]: ≥ 8 days
calculated fluorescein retained in the ablated tumor [5]: greater than 90%
course of released fluorescein ([6]; RF ablated bovine liver, continued washing): exponential decline
fluorescein still contained in the ablated tissue, of the original fluorescein ([6]; after one week of continued washing): greater than 50%
Structure (SMILES): O=C1OC2(c3ccc(O)cc3Oc3cc(O)ccc32)c2ccccc21 [fluorescein]
fluorescein excreted in the urine [3]: 98%
